# Columns and labels:
# [1] = rats, intravenous and intramuscular administration; cited from earlier work
# [2] = system: U937 cells; test: AML chemotherapy resistance assay (XTT cell viability), U937; assay type: cell-based, human
# Experimental: (§1) Cell viability was determined using a cell proliferation kit (Roche), which colors viable cells using the tetrazolium salt XTT.
# (§2) 2×10^4 per 200 μl cells were seeded in 96-microwell flat bottom plates. After 24 hours, the tested compound(s) (e.g., AS101, ARA-C, DTNB, anti-VLA-4 antibody) was added, and the cells were incubated overnight with the tested compound(s). The XTT solution was then added and the cells were incubated for 4 hours at 37° C. Cell viability was than evaluated by measuring absorbance at 450 nm using a Microplate Spectrophotometer (Spectra MAX Plus, Molecular Devices).
# The role of VLA protein in fibronectin-induced resistance to chemotherapy was investigated by performing a chemotherapy resistance assay, as described hereinabove, with anti-VLA-4 and anti-VLA-5 antibodies. U937 cells were grown in fibronectin- and BSA-coated plates. Antibodies were added at a concentration of 1 μg/ml.
# [3] = system: HL-60 cells; test: AML chemotherapy resistance assay (XTT cell viability), HL-60; assay type: cell-based, human
# Experimental: as §1, §2
# [4] = system: U937 cells; test: Fluorescence-based flow cytometry analysis of cell death; set-up: species or system human
# Description: Fluorescence-based flow cytometry was used to measure the effect of tellurium-containing compounds on chemotherapy-induced cell death. Accumulation of cells in the sub-G1 fraction, increased proportion of annexin V-positive and propidium iodide-positive cells and increased caspase activity were each used as indicators of increased cell death, using standard procedures.
# [5] = system: West Nile Virus (WNV); test: WNV plaque assay; assay type: cell-based; details: Vero cells, added 1 hour before inoculation
# Experimental: Vero cells were seeded at a density of 1×10^6 cells in 10 cm dishes 20 hours prior to infection. WNV (5×10^3 PFU/ml, MOI=0.005 PFU/cell) was added to the cultures, and the plates were incubated for 1 hour at 37° C. with 5% CO2. After incubation, the medium was removed and the cells were washed 6 times with PBS and overlaid with fresh EMEM medium containing 4% FCS (fetal calf serum) and 1% (w/v) agar. Cells were then incubated at 37° C. with 5% CO2 for 3 days until plaques appeared, and then fixed and stained with a solution of 0.5% crystal violet in a mixture of formalin (1% v/v) and ethanol (1.65% v/v). Plaques were counted over a light box after removal of the agar overlay.
# [6] = system: αVβ3 integrin; test: Anti-αVβ3 integrin antibody binding assay; assay type: cell-based
# Experimental: An anti-αVβ3 integrin mediated cell adhesion kit (Millipore [Chemicon], Temecula, Calif.) was used to determine cells attachment to anti-αVβ3 integrin antibody, in the presence or absence of AS101. Briefly, Vero or BGM cells were mixed with PBS or with AS101 (1-10 μg/ml) and were added to anti-αVβ3 integrin coated 96-well plates, and to a control 96-well plate (containing anti-mouse IgG) in triplicate. The plates were incubated at 37° C., 5% CO2, for 2 hours, and the cells were then stained and extracted according to the kit instructions, using the staining solution and extraction buffer supplied with the kit. Cell concentration was measured by a spectrophotometer at 540 nm.
# [7] = system: West Nile Virus (WNV); test: Cell-free virus assay; assay type: cell-based; details: Vero cells, 5 and 10 μg/ml 1 hour before infection, 1 hour after adsorption
# Experimental: Cells were plated 20 hours before virus infection in 6-well plates at a density of 2×10^5 cells/plate, and treated with AS101 (1-10 μg/ml) for 1 hour or for 5-10 minutes before WNV infection. The cells were infected at MOI=5 PFU/cell and incubated for 1 hour at 37° C., 5% CO2. Supernatants were collected immediately following the incubation, and the concentration of the virus which remained cell-free in the culture supernatant was measured by viral plaque assay, as described above.
# [8] = biological target: T1, VLA-4 (Homo sapiens, UniProt P13612); test: Western blot analysis of VLA-4 thiols; assay type: cell-based; details: U937 cultured on fibronectin
# T1 construct: free thiols are present on the integrin VLA-4 in leukemic cells; endogenous in cells; host or cells: U937 leukemic cells
# Experimental: In order to confirm that free thiols are present on the integrin VLA-4 in leukemic cells, and that these are blocked by AS101, U937 leukemic cells cultured on fibronectin or BSA were treated with BMCC (1-biotinamido-4-(4′-[maleimidoethylcyclohexane]-carboxamido)butane), a thiol blocker linked to biotin. Some cultures were treated with AS101. The α and β chains of the VLA-4 (α4β1 integrin) were then immunoprecipitated from the treated cells using either anti-α4 or anti-β1 antibodies and blotted with anti-biotin antibody. The presence of free thiols was indicated by bands observed by anti-biotin blotting. The presence of α4 and β1 chains was determined by blotting with anti-α4 and anti-β1 antibodies.
# [9] = HL-60, fibronectin-coated plates, 0.5 or 1 μg/ml AS101
# [10] = U937 on BSA, AS101 combined with ARA-C
# [11] = U937 on fibronectin, AS101 combined with ARA-C
# [12] = U937 on fibronectin, agent alone
# T1 sequence (P13612 34-1032): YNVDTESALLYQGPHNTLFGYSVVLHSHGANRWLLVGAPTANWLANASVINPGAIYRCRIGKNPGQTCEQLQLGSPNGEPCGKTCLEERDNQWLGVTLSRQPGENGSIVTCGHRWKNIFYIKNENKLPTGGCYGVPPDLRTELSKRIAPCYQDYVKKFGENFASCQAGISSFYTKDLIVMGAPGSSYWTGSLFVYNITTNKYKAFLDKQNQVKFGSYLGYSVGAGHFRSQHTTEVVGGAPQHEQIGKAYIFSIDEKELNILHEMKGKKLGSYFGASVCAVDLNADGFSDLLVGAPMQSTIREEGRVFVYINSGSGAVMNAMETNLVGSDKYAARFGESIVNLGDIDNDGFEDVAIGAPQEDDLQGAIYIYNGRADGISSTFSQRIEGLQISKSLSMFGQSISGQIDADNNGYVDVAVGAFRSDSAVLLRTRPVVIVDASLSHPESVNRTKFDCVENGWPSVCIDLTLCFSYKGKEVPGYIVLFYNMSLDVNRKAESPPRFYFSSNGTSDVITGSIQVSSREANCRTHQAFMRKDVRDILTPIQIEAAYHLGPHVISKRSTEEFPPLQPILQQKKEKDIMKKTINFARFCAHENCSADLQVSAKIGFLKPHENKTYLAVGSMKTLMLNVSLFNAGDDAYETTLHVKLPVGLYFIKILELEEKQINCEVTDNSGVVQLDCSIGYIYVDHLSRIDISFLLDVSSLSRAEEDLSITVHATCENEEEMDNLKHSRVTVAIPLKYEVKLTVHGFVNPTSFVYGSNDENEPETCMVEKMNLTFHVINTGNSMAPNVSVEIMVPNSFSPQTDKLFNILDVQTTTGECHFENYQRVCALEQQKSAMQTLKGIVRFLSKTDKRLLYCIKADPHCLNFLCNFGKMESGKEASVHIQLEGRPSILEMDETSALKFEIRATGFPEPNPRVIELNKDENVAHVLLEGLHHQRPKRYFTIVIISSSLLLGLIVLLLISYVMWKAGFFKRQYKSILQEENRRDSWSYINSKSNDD
# T1 sequence (P05556 21-798 partner): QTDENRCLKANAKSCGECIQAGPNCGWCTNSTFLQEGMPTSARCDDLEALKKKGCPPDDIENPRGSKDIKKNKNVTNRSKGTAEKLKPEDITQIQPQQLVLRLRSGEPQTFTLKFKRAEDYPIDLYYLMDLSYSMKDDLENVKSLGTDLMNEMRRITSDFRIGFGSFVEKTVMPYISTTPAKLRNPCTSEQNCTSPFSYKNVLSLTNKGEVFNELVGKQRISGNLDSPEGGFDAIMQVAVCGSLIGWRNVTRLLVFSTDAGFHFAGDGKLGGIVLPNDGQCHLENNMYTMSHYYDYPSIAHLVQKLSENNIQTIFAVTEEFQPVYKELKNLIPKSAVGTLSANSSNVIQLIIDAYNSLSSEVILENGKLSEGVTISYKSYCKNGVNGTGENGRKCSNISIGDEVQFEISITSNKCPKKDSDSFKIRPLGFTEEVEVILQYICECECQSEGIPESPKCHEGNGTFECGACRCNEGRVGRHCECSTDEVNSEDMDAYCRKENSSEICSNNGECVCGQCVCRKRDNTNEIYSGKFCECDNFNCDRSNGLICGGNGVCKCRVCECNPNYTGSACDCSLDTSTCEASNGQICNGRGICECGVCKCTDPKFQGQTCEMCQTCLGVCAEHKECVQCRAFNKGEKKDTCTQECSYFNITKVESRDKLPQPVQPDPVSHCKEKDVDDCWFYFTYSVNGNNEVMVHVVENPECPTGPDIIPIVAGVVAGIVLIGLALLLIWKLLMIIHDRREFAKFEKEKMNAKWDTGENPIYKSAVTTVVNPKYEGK
smiles,measurement,setting,value
"Cl[TeH]1(Cl)(Cl)OCCO1 [AS101, ammonium trichloro(dioxyethylene-O,O′)tellurate]",LD50 relative to the immunologically effective dose,[1],500-1000 folds
same,effect on viability of cells exposed to ARA-C,"[2]; U937, BSA-coated plates",neither AS101 nor anti-VLA-4 antibodies had an effect
same,additional sensitization to ARA-C in cells sensitized by anti-VLA-4 antibodies,"[2]; U937, fibronectin-coated plates",no additional effect
same,sensitization to ARA-C-induced cell death,"[2]; U937, fibronectin-coated plates, 0.5 or 1 μg/ml AS101",sensitized U937 cells to ARA-C-induced cell death on fibronectin-coated plates
same,"effect on viability of cells exposed to ARA-C, alone or in combination",[2]; U937 on BSA,no effect either alone or in combination
same,"sensitization to ARA-C, combination of AS101 and DTNB vs either alone",[2]; U937 on fibronectin,did not sensitize U937 cells grown on fibronectin to a greater degree than did either AS101 or DTNB alone
same,sensitization to daunorubicin-induced cell death,"[3]; HL-60, BSA-coated or VCAM-1-coated plates",no visible effect
same,sensitization to ARA-C-induced cell death,[3]; [9],sensitized HL-60 cells to ARA-C-induced cell death on fibronectin-coated plates
same,sensitization to daunorubicin-induced cell death,[3]; [9],sensitized HL-60 cells to daunorubicin-induced cell death on fibronectin-coated plates in a dose-dependent manner
same,"caspase-3 activity, ARA-C and AS101 in combination vs ARA-C alone",[4]; U937 on BSA,the same degrees of caspase-3 activity
same,percentage of annexin V-positive and propidium iodide-positive cells,[4]; [10],only slightly above the percentage obtained with ARA-C alone
same,percentage of cells in the sub-G1 fraction,[4]; [10],did not provide significantly different results than ARA-C alone
same,percentage of annexin V-positive and propidium iodide-positive cells,[4]; [11],increased the percentage of annexin V-positive and propidium iodide-positive cells considerably
same,percentage of cells in the sub-G1 fraction,[4]; [11],over 80%
same,percentage of cells with high caspase-3 activity,[4]; [11],high percentage of cells with increased caspase-3 activity
same,percentage of annexin V-positive and propidium iodide-positive cells,[4]; [12],no effect alone
same,percentage of cells in the sub-G1 fraction,[4]; [12],no effect alone
same,percentage of cells with high caspase-3 activity,[4]; [12],little or no effect
same,WNV-induced plaque formation,[5],dose-dependent protective effect against the plaque formation
same,inhibition of binding of anti-αVβ3 integrin antibody to cells,"[6]; BGM cells, 10 μg/ml, data not shown",64%
same,binding of anti-αVβ3 integrin antibody to cells,"[6]; Vero cells, 1-10 μg/ml",inhibited the binding of anti-αVβ3 integrin antibody to Vero cells in a dose-dependent manner
same,WNV infectious units in culture supernatant relative to untreated cells,[7],approximately twice
same,free thiols on the α chain of VLA-4 (BMCC labelling),[8],eliminated these free thiols

# Source: patent publication US20100297256A1, “METHODS AND COMPOSITIONS FOR INHIBITING INTEGRINS USING TELLURIUM-CONTAINING COMPOUNDS” (priority 2007, published 2010)
